Data reported in publication PMC8011643 (Bioorganic & medicinal chemistry letters, 2019).
Like-named read-outs stand apart in the source and are kept apart here.

Experiments:
CCR6 human receptor = conditions: read-out: IC50 against CCR6; previously reported; cited from earlier work
CXCR5 human receptor = conditions: read-out: IC50 against CXCR5; previously reported; cited from earlier work
CXCR4 human receptor = conditions: read-out: IC50 against CXCR4; previously reported; cited from earlier work
human CXCR6 receptor [1] = target: T1, human CXCR6 receptor (Homo sapiens, UniProt O00574); type: cell-based
SK-HEP-1 hepatoma cells = assay: SK-Hep-1 invasion/migration, live cell transwell assay; type: cell-based, human; conditions: for effect on SK-Hep-1 invasion in words: live cell transwell assay
human CXCR6 receptor [2] = target: T1, human CXCR6 receptor; assay: Antagonism of CXCL16; type: cell-based; conditions: vs ML339
[3] = Solubility in aqueous buffer; type: physicochemical; conditions: pH range 5.0–7.4
PAMPA permeability = type: in vitro ADME
Plasma protein binding = type: in vitro ADME
[4] = Stability in mouse plasma; type: in vitro ADME
[5] = Stability in human plasma; type: in vitro ADME
human liver microsomes = assay: Metabolic stability in human liver microsomes; type: in vitro ADME; conditions: within 1h
[6] = Metabolic stability in mouse liver microsomes; type: in vitro ADME; conditions: within 1h
[7] = Rapid Assessment of Compound Exposure; type: in vivo, mouse

T1 sequence (O00574 whole entry): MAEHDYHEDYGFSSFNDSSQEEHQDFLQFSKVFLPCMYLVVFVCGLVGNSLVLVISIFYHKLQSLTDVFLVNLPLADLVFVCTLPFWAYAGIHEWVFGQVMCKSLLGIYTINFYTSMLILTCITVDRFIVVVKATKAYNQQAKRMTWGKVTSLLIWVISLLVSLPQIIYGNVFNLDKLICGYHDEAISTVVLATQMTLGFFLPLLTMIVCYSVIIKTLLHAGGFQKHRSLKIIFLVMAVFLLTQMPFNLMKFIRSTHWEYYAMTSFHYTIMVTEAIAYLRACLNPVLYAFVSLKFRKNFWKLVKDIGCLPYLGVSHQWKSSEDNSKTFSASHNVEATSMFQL

## COc1cc(C(=O)N[C@@H]2C[C@H]3CCC[C@@H](C2)N3CC(=O)Nc2ccccc2Cl)cc(OC)c1OC [Compound 17]
CCR6 human receptor
  IC50: > 80 µM
CXCR5 human receptor
  IC50: > 80 µM
CXCR4 human receptor
  IC50: > 80 µM

## COc1cc(C(=O)N[C@@H]2C[C@H]3CCC[C@@H](C2)N3CC(=O)c2nc3ccccc3s2)cc(OC)c1OC [Compound 72]
Human CXCR6 receptor [1]; carbonyl linkage, comparator not named
  fold loss in activity: 100 fold

## COc1cc(C(=O)N[C@@H]2C[C@H]3CCC[C@@H](C2)N3Cc2nc3c(Cl)cccc3s2)cc(OC)c1OC [Compound 73]
SK-HEP-1 hepatoma cells
  effect on SK-Hep-1 invasion in words: inhibited invasion

## COc1cc(C(=O)N[C@@H]2C[C@H]3CCC[C@@H](C2)N3Cc2ccccc2Cl)cc(OC)c1OC [Compound 59]
Human CXCR6 receptor [1]; vs compound 17
  fold lower activity than compound 17: 48 fold

## O=C(CN1[C@@H]2CCC[C@H]1C[C@H](NC(=O)c1ccccc1)C2)Nc1ccccc1 [Compound 6]
SK-HEP-1 hepatoma cells
  effect on SK-Hep-1 invasion in words: had no effect

## COc1cc(C(=O)N[C@@H]2C[C@H]3CCC[C@@H](C2)N3Cc2nc3c(C(F)(F)F)cccc3s2)cc(OC)c1OC [Compound 81]
Human CXCR6 receptor [1]
  EC50: 0.04 µM
Human CXCR6 receptor [1]; vs ML339
  fold improvement in potency in β-arrestin assay: ≥ 10 fold
Human CXCR6 receptor [2]
  fold improvement in potency in cAMP assay: ≥ 10 fold
SK-HEP-1 hepatoma cells; SK-HEP-1, 72 h
  cell viability in words: without loss in cell viability
[3]
  solubility in words: good solubility
PAMPA permeability
  PAMPA permeability in words: good PAMPA permeability
Plasma protein binding
  plasma protein binding in words: high plasma protein binding
[4]
  stability in mouse plasma in words: excellent stability
[5]
  stability in human plasma in words: excellent stability
Human liver microsomes
  metabolism in human liver microsomes in words: almost completely metabolized
[6]
  metabolism in mouse liver microsomes in words: almost completely metabolized
[7]; 10 mg/kg oral dose, DMSO: Tw80: H2O (1:1:8)
  exposure in RACE assay in words: good exposure
[7]; mice
  bioavailability in words: good bioavailability
SK-HEP-1 tumor; 30 mg/kg oral, Day 4 to Day 30, P < 0.0005
  SK-HEP-1 tumor growth vs vehicle in words: significantly inhibited
SK-HEP-1 tumor; 60 mg/kg oral, Day 4 to Day 30, P < 0.0002
  SK-HEP-1 tumor growth vs vehicle in words: significantly inhibited
SK-HEP-1 tumor; 30 and 60 mg/kg, 30-day study
  toxicity to mice in words: non-toxic
